In one data set the test system is db/db mouse. As to the kind of experiment: db/db mouse plasma glucose and triglycerides, oral gavage. The conditions noted are these: for db/db mouse Glu. (D 7): plasma glucose as a % correction relative to lean values on day 7 of treatment with 30 mg/kg/day; for db/db mouse Trigs. (D 3): plasma triglycerides as a % of control values on day 3 of treatment with 30 mg/kg/day. Format: in vivo.

Data set [1] relates to transgenic mice carrying the human apo A-I gene. Description: Mice transgenic for the human apolipoprotein A-I gene: HDL cholesterol and triglycerides. Particulars: transgenic mouse model; Table 1. The data set is classed as in vivo. The text has this:
Mice transgenic for the human apolipoprotein A-I gene (obtained from Jackson Laboratory) were used to evaluate PPARα mediated effects on high density lipoprotein (HDL) cholesterol. The mice were handled as described above for db/db mice, except that they were fed Purina 5001.
When administered to transgenic mice carrying the human apo A-I gene, compounds of the invention are expected to increase HDL cholesterol. […] This effect is consistent with activation of PPARα and, in fact, in vivo these compounds synergize with the weak PPARα agonist fenofibrate.

For the next data set, the target named is T1, RXR α (Homo sapiens, UniProt P19793).
T1 sequence (P19793 1-462): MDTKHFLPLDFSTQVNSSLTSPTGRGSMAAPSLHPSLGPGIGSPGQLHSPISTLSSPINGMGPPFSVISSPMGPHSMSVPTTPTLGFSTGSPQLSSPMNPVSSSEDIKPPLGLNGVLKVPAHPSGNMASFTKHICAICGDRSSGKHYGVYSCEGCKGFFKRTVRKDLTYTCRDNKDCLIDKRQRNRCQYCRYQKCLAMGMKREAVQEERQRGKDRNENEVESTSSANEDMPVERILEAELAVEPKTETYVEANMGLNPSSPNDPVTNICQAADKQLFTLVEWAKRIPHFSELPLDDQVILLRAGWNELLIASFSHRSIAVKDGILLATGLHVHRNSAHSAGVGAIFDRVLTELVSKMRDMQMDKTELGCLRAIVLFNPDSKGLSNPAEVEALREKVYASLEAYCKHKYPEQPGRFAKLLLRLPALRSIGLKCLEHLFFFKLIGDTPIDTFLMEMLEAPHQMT
As to the kind of experiment: RXR α binding, Ki from IC50 by Cheng-Prussof equation using tritiated LGD1069. The conditions noted are these: determined from IC50 values by the Cheng-Prussof equation using tritiated LGD1069; read-out: Bind RXR α Ki.

The target in the next data set is T2, RXR:RAR (Homo sapiens, UniProt P19793).
T2 construct: host or cells: CV-1
T2 sequence (P19793 1-462): T1 sequence (P19793 1-462)
T2 sequence (P10276 1-462 partner): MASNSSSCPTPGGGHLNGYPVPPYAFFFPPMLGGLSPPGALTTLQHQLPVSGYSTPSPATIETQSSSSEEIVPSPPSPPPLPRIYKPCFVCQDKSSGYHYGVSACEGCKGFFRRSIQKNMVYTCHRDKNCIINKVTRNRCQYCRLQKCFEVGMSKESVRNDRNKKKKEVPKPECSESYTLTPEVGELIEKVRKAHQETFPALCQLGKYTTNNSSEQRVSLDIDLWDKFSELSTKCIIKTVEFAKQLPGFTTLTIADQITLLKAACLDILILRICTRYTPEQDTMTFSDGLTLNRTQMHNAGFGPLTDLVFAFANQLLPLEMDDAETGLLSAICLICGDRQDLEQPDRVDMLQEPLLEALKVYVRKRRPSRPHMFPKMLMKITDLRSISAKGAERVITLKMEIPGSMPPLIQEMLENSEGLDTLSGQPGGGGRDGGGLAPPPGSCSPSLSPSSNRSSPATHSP
As to the kind of experiment: RXR:RAR agonist efficacy in CV-1 cells. The data set is classed as cell-based. The conditions noted are these: for RXR:RAR CV-1 (%) Ag.: maximal response relative to maximal response of ATRA; for activation of RXR:RAR heterodimers: statement on Table 1.

For a further data set, the target named is T3, RXR:RXR (Homo sapiens, UniProt P19793).
T3 construct: host or cells: CV-1
T3 sequence (P19793 1-462): T1 sequence (P19793 1-462)
As to the kind of experiment: RXR:RXR agonist/antagonist efficacy in CV-1 cells. Format: cell-based. The conditions noted are these: for RXR:RXR CV-1 (%) Antag: maximal repression (100%) in the presence of 32 nM LGD1069; for RXR:RXR CV-1 (%) Ag: maximal response relative to maximal response of ATRA.

A further data set concerns the target T4, RXR:PPARγ (Homo sapiens, UniProt P19793).
T4 construct: host or cells: CV-1
T4 sequence (P19793 1-462): T1 sequence (P19793 1-462)
T4 sequence (P37231 1-505 partner): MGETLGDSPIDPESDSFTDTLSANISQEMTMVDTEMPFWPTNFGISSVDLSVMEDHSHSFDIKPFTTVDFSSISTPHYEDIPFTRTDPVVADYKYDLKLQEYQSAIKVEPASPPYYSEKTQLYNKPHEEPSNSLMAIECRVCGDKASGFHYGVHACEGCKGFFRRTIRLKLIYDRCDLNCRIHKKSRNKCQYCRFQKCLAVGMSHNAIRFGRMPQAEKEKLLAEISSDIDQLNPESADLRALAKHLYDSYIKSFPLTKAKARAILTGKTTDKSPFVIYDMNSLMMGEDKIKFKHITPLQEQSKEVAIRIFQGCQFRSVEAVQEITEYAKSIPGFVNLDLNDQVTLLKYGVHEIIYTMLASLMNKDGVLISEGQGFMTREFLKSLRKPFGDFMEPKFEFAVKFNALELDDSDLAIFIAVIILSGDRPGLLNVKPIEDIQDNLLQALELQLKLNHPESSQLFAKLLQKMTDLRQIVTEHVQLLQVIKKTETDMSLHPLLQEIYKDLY
As to the kind of experiment: RXR:PPARγ synergy with BRL49653 in CV-1 cells. Format: cell-based. Particulars: maximal response in presence of 100 nM BRL49653 (RXR:PPARγ) relative to maximal response of BRL49653 alone.

For the next data set, the system named is rodent models of NIDDM. As to the kind of experiment: Rodent models of NIDDM, effects of full RXR homodimer agonists.

The structures appear in SMILES notation.

Procedure for rodent models of NIDDM: All animal experiments were conducted in a United States Department of Agriculture registered facility in accordance with NIH guidelines for the care and use of laboratory animals. Mice (obtained from Jackson Laboratory), ZDF rats (obtained from Genetic Models Inc.) and fa/fa rats (obtained from either Charles River, or Harlan) were maintained on 12-hour light/dark cycle. Mice (age 28-42 days) were caged in groups of 5-6. Rats (age 7 weeks) were housed individually. […] Compounds were administered at the specified doses by oral gavage on the morning of each day of any experiment. Blood samples were obtained 3 hours after dosing from fed animals under anesthesia and collected into heparinized capillary tubes from the tail vein.

For `CN(C)C(=N)N=C(N)N` [metformin, reference compound], the plasma glucose result in the data set with db/db mouse (7 week old db/db mice, 300 mg/kg by daily oral gavage, maximum effect after first week, efficacy decreases over 3 subsequent weeks) is “lowers plasma glucose”.

One may read the Ki as a dissociation constant, usually derived from enzyme kinetics or from competition with a known ligand. As for `CCOc1c(-c2cccc3cc(/C(C)=C/C(=O)O)oc23)cc(C(C)C)cc1C(C)C` [Ex. 5, 3-[7-(2-Ethoxy-3,5-diisopropylphenyl)-benzo[b]furan-2-yl]-but-2-enoic acid], the triglycerides entry in data set [1] is recorded as “do not raise triglycerides”. Further, on RXR α, the Ki is 22 nM. In addition, at RXR:RAR, the “RXR:RAR CV-1 (%) Ag.” value is listed as 3% and the “activation of RXR:RAR heterodimers” value is given as “do not activate RXR:RAR heterodimers”. Further, in the data set with db/db mouse, the “db/db mouse Glu. (D 7)” value is given as 17% and the “db/db mouse Trigs. (D 3)” value is reported as 104%. Moreover, on RXR:RXR, the “RXR:RXR CV-1 (%) Antag” value worked out at 10% and the “RXR:RXR CV-1 (%) Ag” value is recorded as 33%. For the same compound, the “PPARγ CV-1 (%) Synergy” value on RXR:PPARγ is 140%.

For the compound `Cc1cc2c(cc1C1(c3ccc(C(=O)O)cn3)CC1)C(C)(C)CCC2(C)C` [LG100268], in data set [1], the triglycerides entry is on record as “raises triglycerides”. Besides, in the data set with rodent models of NIDDM, the blood glucose levels entry is reported as “lower blood glucose levels”, the thyroid hormone axis result was “suppress the thyroid hormone axis” and the triglycerides entry was “raise triglycerides”. In addition, in the data set with db/db mouse, the “db/db mouse Glu. (D 7)” value is on record as 73% and the “db/db mouse Trigs. (D 3)” value is listed as 195%.

With `CCCOc1c(-c2cccc3sc(/C(C)=C/C(=O)O)cc23)cc(C(C)C)cc1C(C)C` [Ex. 15], in data set [1], the triglycerides result is reported as “do not raise triglycerides”. The Ki at RXR α is 14 nM. For the same compound, on RXR:RAR, the “RXR:RAR CV-1 (%) Ag.” value turned out to be 6% and the “activation of RXR:RAR heterodimers” value was “do not activate RXR:RAR heterodimers”. For the same compound, in the data set with db/db mouse, the “db/db mouse Glu. (D 7)” value was 20% and the “db/db mouse Trigs. (D 3)” value is listed as 98%. Besides, at RXR:RXR, the “RXR:RXR CV-1 (%) Antag” value amounted to 81% and the “RXR:RXR CV-1 (%) Ag” value worked out at 4%. At RXR:PPARγ, the “PPARγ CV-1 (%) Synergy” value is 109%.

For the compound `C/C(=C\C(=O)O)c1cc2c(-c3cc(C(C)(C)C)cc(C(C)(C)C)c3OCC(F)F)cccc2s1` [Ex. 14, 3-{4-[2-(2,2-Difluoroethoxy)-3,5-di-tert-butylphenyl]-benzo[b]thien-2-yl}-but-2-enoic acid], in data set [1], the triglycerides result was “do not raise triglycerides”. The Ki on RXR α was determined as 12 nM. On RXR:RAR, the “RXR:RAR CV-1 (%) Ag.” value is reported as 2% and the “activation of RXR:RAR heterodimers” value is listed as “do not activate RXR:RAR heterodimers”. In the data set on db/db mouse, the “db/db mouse Glu. (D 7)” value was 35% and the “db/db mouse Trigs. (D 3)” value worked out at 139%. At RXR:RXR, the “RXR:RXR CV-1 (%) Antag” value came to 79% and the “RXR:RXR CV-1 (%) Ag” value was determined as 1%. At RXR:PPARγ, the “PPARγ CV-1 (%) Synergy” value is listed as 67%.

The term melting point denotes the temperature, or range, at which the solid turns liquid. In the case of `CCCCOc1c(-c2ccnc3ccc(/C(C)=C/C(=O)O)cc23)cc(C(C)C)cc1C(C)C` [Example 54, 3-[4-(2-Butoxy-3,5-diisopropyl-phenyl)quinolin-6-yl]-but-2(E)-enoic acid], the melting point is 195.3 °C.

As for `C/C(=C\C(=O)O)c1ccc2[nH]cc(-c3cc(C(C)(C)C)cc(C(C)(C)C)c3OCC(F)(F)F)c2c1` [Example 65, 3-{3-[3,5-Di-tert-butyl-2-(2,2,2-trifluoro-ethoxy)-phenyl]-1H-indol-5-yl}-but-2-enoic acid], the melting point was 146 to 153 °C.

In turn, `CCCOc1c(-c2c[nH]c3ccc(/C(C)=C/C(=O)O)cc23)cc(C(C)(C)C)cc1C(C)(C)C` [Example 63, 3-[3-(3,5-Di-tert-butyl-2-propoxy-phenyl)-1H-indol-5-yl]-but-2-enoic acid] came in with a melting point of 105 to 115 °C.

Regarding `CCCCOc1c(-c2nccc3ccc(/C(C)=C/C(=O)O)cc23)cc(C(C)C)cc1C(C)C` [Example 53, 3-[1-(2-Butoxy-3,5-diisopropyl-phenyl)-isoquinolin-7-yl]-but-2(E)-enoic acid], the melting point is 149.8 °C.

Consider `CCCCOc1c(-c2c(F)ccc3sc(/C(C)=C/C(=O)O)cc23)cc(C(C)C)cc1C(C)C` [Ex. 18, (E)-3-[4-(2-n-Butoxy-3,5-di-iso-propylphenyl)-5-fluorobenzo[b]thien-2-yl]-but-2-enoic acid], for which the triglycerides entry in data set [1] is recorded as “do not raise triglycerides”. For the same compound, the inhibition constant (Ki) at RXR α came out at 54 nM. For the same compound, on RXR:RAR, the “RXR:RAR CV-1 (%) Ag.” value is 4% and the “activation of RXR:RAR heterodimers” value was “do not activate RXR:RAR heterodimers”. For the same compound, in the data set on db/db mouse, the “db/db mouse Glu. (D 7)” value was determined as 38% and the “db/db mouse Trigs. (D 3)” value was found to be 105%. In addition, at RXR:RXR, the “RXR:RXR CV-1 (%) Antag” value is listed as 86% and the “RXR:RXR CV-1 (%) Ag” value was determined as 1%. Further, the “PPARγ CV-1 (%) Synergy” value at RXR:PPARγ was 40%.

On to `C/C(=C\C(=O)O)c1ccc2[nH]cc(-c3cc(C(C)(C)C)cc(C(C)(C)C)c3OCC(F)F)c2c1` [Example 64, 3-{3-[3,5-Di-tert-butyl-2-(2,2-difluro-ethoxy)-phenyl]-1H-indol-5-yl}-but-2-enoic acid], for which the melting point lay in the range of 135 to 145 °C.

Values taken from patent publication US7348359B2, “Retinoid X receptor modulators” (Eli Lilly and Company, priority 2001, dated 2008).
